Assay results taken from the kinase profiling compilation of Christmann-Franck et al. (2016).

How the values were obtained:
Experiment in all cases: radiometric filter-binding kinase assay
[1] = molecular target: MAPKAPK3 (human) (UniProt Q16644)
[2] = system: PRKAA1 or PRKAA2 (rat); conditions: accession and sequence are those of the human protein
[3] = molecular target: PTK6 (human) (UniProt Q13882)
[4] = molecular target: STK16 (human) (UniProt O75716)
[5] = molecular target: PRKCG (human) (UniProt P05129)
[6] = molecular target: STK33 (human) (UniProt Q9BYT3)
[7] = molecular target: TEK (human) (UniProt Q02763)
[8] = molecular target: ZAP70 (human) (UniProt P43403)
[9] = molecular target: ABL1 (human) (UniProt P00519)
Chain of ABL1 (human) (P00519 whole entry, looked up): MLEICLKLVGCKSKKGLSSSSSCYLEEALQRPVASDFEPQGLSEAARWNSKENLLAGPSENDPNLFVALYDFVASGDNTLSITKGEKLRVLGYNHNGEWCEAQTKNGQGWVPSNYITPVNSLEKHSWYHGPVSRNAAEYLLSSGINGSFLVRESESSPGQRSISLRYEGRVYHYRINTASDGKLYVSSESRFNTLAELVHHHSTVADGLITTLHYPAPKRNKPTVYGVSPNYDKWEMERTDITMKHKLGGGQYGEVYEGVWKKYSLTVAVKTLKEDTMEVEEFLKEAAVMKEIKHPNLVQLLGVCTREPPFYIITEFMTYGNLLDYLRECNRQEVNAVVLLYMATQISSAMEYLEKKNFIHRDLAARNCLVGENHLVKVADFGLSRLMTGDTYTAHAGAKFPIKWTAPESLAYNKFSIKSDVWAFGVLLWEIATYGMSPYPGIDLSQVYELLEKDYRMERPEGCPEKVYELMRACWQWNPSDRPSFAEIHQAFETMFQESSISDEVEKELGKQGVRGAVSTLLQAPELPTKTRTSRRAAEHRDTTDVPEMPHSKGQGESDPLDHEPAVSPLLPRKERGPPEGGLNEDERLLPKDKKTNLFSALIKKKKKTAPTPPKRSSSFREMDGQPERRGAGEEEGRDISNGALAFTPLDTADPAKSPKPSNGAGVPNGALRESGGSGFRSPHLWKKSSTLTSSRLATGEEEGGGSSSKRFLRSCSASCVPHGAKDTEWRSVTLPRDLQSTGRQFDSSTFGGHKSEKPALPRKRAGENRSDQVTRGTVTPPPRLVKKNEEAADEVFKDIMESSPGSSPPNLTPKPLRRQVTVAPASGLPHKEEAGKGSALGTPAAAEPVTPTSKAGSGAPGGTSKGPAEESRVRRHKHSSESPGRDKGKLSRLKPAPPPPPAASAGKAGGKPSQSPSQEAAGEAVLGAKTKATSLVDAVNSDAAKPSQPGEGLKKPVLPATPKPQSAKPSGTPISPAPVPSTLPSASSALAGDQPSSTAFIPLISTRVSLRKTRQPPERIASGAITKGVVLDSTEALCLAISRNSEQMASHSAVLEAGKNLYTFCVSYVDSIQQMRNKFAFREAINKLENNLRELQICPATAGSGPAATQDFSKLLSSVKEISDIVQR

Chain of MAPKAPK3 (human) (Q16644 whole entry, looked up): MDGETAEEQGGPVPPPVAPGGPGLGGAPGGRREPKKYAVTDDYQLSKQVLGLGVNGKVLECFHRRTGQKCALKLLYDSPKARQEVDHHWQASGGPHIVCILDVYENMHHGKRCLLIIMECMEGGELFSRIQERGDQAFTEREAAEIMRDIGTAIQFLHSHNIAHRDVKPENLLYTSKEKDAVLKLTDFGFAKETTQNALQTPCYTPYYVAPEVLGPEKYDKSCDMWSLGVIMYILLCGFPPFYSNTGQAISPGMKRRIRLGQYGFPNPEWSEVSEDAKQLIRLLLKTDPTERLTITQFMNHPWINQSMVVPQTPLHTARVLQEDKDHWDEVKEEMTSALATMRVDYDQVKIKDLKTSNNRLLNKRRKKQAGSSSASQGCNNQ
Chain of ZAP70 (human) (P43403 whole entry, looked up): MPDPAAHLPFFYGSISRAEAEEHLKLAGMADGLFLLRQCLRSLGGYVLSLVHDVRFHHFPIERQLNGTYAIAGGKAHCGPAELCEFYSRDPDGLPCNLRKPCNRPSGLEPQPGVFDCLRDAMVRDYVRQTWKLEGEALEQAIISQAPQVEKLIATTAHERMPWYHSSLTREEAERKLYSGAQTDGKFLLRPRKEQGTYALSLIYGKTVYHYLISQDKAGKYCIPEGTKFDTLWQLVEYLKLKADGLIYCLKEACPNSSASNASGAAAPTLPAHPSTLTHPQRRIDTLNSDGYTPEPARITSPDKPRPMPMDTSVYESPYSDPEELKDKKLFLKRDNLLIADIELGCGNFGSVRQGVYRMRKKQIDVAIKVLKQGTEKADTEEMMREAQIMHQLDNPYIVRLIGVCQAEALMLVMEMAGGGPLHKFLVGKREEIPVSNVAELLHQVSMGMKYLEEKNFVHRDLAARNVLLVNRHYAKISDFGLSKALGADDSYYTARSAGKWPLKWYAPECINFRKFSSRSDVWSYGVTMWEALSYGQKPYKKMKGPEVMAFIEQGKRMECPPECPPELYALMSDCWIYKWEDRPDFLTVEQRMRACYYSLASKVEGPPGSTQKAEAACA
Chain of STK33 (human) (Q9BYT3 whole entry, looked up): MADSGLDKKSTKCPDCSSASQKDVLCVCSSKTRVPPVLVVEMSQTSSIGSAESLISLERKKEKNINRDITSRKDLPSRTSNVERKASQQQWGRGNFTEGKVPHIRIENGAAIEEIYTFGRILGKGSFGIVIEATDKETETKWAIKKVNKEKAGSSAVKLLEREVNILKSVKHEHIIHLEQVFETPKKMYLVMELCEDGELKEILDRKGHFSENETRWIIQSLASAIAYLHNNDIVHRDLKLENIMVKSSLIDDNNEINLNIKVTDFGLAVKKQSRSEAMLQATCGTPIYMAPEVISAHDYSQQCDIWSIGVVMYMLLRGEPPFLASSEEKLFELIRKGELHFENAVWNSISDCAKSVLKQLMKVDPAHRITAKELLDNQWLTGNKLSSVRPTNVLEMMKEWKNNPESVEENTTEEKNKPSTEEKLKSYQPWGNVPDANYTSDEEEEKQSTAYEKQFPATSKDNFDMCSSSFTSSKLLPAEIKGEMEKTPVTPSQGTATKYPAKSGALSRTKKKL
Chain of PTK6 (human) (Q13882 whole entry, looked up): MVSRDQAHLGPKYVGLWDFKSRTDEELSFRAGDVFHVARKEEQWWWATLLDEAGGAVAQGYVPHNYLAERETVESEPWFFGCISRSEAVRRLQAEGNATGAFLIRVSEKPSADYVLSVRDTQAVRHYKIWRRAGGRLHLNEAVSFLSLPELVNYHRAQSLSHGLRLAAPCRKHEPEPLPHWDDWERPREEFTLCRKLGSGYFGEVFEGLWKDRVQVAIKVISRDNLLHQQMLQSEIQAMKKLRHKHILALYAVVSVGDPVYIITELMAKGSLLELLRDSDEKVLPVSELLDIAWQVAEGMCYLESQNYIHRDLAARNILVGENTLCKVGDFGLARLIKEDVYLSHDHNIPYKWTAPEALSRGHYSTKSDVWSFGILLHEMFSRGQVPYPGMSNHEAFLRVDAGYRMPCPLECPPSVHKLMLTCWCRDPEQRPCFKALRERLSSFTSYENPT
Chain of STK16 (human) (O75716 whole entry, looked up): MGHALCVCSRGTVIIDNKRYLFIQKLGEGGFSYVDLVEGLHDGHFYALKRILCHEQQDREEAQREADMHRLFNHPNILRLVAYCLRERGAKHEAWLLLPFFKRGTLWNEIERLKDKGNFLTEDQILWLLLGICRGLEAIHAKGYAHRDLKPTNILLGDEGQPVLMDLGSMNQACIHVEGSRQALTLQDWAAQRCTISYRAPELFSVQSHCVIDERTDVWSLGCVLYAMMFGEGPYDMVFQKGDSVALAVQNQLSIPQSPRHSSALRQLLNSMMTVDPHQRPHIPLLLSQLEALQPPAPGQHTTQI

In the case of O=c1c(O)c(-c2ccc(O)c(O)c2)oc2cc(O)c(O)c(O)c12, the residual activity ([1]; compound 1.0 µM) is reported as 92%, the residual activity ([1]; compound 10.0 µM) is reported as 14% and the residual activity ([2]; compound 1.0 µM) is reported as 73%. For the same compound, the residual activity ([2]; compound 10.0 µM) was 9%.

With FC(F)(F)c1ccc(-c2ccc(Oc3cncc4sc(-c5nn[nH]n5)cc34)cc2)cc1 the residual activity ([1]; compound 1.0 µM) was 109%, the residual activity ([1]; compound 10.0 µM) was 95% and the residual activity ([2]; compound 1.0 µM) was 81%. The residual activity ([2]; compound 10.0 µM) was 51%.

Work on O=S(=O)(c1ccc(F)c2nonc12)N1CCN(c2ncc(C(F)(F)F)cc2Cl)CC1 yielded a residual activity ([1]; compound 10.0 µM) of 90%, a residual activity ([3]; compound 10.0 µM) of 101% and a residual activity ([4]; compound 10.0 µM) of 94%. The residual activity ([5]; compound 10.0 µM) was 98%, the residual activity ([6]; compound 10.0 µM) was 97% and the residual activity ([7]; compound 10.0 µM) was 112%. For the same compound, the residual activity ([2]; compound 10.0 µM) was 92%, the residual activity ([8]; compound 10.0 µM) was 85% and the residual activity ([9]; compound 10.0 µM) was 111%.

NC1(c2ccc(-c3nc4ccn5c(=O)[nH]nc5c4cc3-c3ccccc3)cc2)CCC1 showed a residual activity ([1]; compound 0.1 µM) of 88%, a residual activity ([1]; compound 1.0 µM) of 107% and a residual activity ([1]; compound 10.0 µM) of 94%. For the same compound, the residual activity ([2]; compound 0.1 µM) was 98%, the residual activity ([2]; compound 1.0 µM) was 85% and the residual activity ([2]; compound 10.0 µM) was 83%.

With O=C(Nc1ccccc1-c1cn2c(CN3CCNCC3)csc2n1)c1cnc2ccccc2n1 the residual activity ([1]; compound 1.0 µM) was 90%, the residual activity ([1]; compound 10.0 µM) was 100% and the residual activity ([2]; compound 0.1 µM) was 83%. It also gave a residual activity ([2]; compound 1.0 µM) of 88% and a residual activity ([2]; compound 10.0 µM) of 60%.

Cn1c(=O)c2c(ncn2C)n(C)c1=O showed a residual activity ([2]; compound 0.1 µM) of 90% and a residual activity ([2]; compound 1.0 µM) of 98%.

Cc1ccc(Sc2cnc(Nc3cccc(Br)n3)s2)cc1C(=O)N1CCN(C(=O)CN)CC1 showed a residual activity ([1]; compound 0.1 µM) of 91%, a residual activity ([1]; compound 1.0 µM) of 77% and a residual activity ([1]; compound 10.0 µM) of 85%. For the same compound, the residual activity ([2]; compound 0.1 µM) was 63%, the residual activity ([2]; compound 1.0 µM) was 47% and the residual activity ([2]; compound 10.0 µM) was 3%.

NC(=O)c1c(NC(=O)C2CC2)sc2c1CCCC2 showed a residual activity ([1]; compound 1.0 µM) of 100%, a residual activity ([1]; compound 10.0 µM) of 93% and a residual activity ([3]; compound 1.0 µM) of 114%. For the same compound, the residual activity ([3]; compound 10.0 µM) was 95%, the residual activity ([4]; compound 1.0 µM) was 107% and the residual activity ([4]; compound 10.0 µM) was 92%. For the same compound, the residual activity ([5]; compound 1.0 µM) was 98%, the residual activity ([5]; compound 10.0 µM) was 110% and the residual activity ([6]; compound 1.0 µM) was 87%. The residual activity ([6]; compound 10.0 µM) was 74%, the residual activity ([7]; compound 10.0 µM) was 75% and the residual activity ([2]; compound 1.0 µM) was 103%. It also gave a residual activity ([2]; compound 10.0 µM) of 86%, a residual activity ([8]; compound 1.0 µM) of 94% and a residual activity ([8]; compound 10.0 µM) of 80%. The residual activity ([9]; compound 1.0 µM) was 93% and the residual activity ([9]; compound 10.0 µM) was 82%.

O=C1NC(=S)N[C@@H]1Cc1c[nH]c2ccccc12 showed a residual activity ([2]; compound 1.0 µM) of 102% and a residual activity ([2]; compound 10.0 µM) of 95%.

In the case of NC(=O)c1cc2c(-c3cccc(-c4ccccc4)c3)cnc(N)c2s1, the residual activity ([1]; compound 0.1 µM) is reported as 93%, the residual activity ([1]; compound 1.0 µM) is reported as 84% and the residual activity ([1]; compound 10.0 µM) is reported as 69%. For the same compound, the residual activity ([2]; compound 0.1 µM) was 99%, the residual activity ([2]; compound 1.0 µM) was 95% and the residual activity ([2]; compound 10.0 µM) was 68%.

Work on C[C@H]1CCCC(=O)CCC/C=C/c2cc(O)cc(O)c2C(=O)O1 yielded a residual activity ([2]; compound 1.0 µM) of 94% and a residual activity ([2]; compound 10.0 µM) of 60%.

In the case of C/C(=C1/C(=O)Nc2ccc(NC(N)=O)cc21)c1ccc[nH]1, the residual activity ([2]; compound 0.001 µM) is reported as 62%, the residual activity ([2]; compound 0.01 µM) is reported as 25% and the residual activity ([2]; compound 0.1 µM) is reported as 7%.

In the case of COc1cc(O)c2c(c1)/C=C/C[C@H](O)[C@H](O)C(=O)/C=C\C[C@H](C)OC2=O, the residual activity ([1]; compound 0.1 µM) is reported as 113%, the residual activity ([1]; compound 1.0 µM) is reported as 94% and the residual activity ([3]; compound 0.1 µM) is reported as 65%. It also gave a residual activity ([3]; compound 1.0 µM) of 25%, a residual activity ([4]; compound 0.1 µM) of 103% and a residual activity ([4]; compound 1.0 µM) of 101%. For the same compound, the residual activity ([5]; compound 0.1 µM) was 87%, the residual activity ([5]; compound 1.0 µM) was 87% and the residual activity ([6]; compound 0.1 µM) was 120%. The residual activity ([6]; compound 1.0 µM) was 85%, the residual activity ([7]; compound 0.1 µM) was 103% and the residual activity ([7]; compound 1.0 µM) was 93%. The residual activity ([2]; compound 0.1 µM) was 100%, the residual activity ([2]; compound 1.0 µM) was 92% and the residual activity ([8]; compound 0.1 µM) was 110%. The residual activity ([8]; compound 1.0 µM) was 96%, the residual activity ([9]; compound 0.1 µM) was 108% and the residual activity ([9]; compound 1.0 µM) was 71%.

Work on CN1C(=O)[C@@H](Cc2c[nH]c3ccccc23)NC1=S yielded a residual activity ([1]; compound 1.0 µM) of 119%, a residual activity ([1]; compound 10.0 µM) of 114% and a residual activity ([2]; compound 1.0 µM) of 94%. For the same compound, the residual activity ([2]; compound 10.0 µM) was 102%.

Oc1ccc2ccccc2c1SSc1c(O)ccc2ccccc12 gave a residual activity ([1]; compound 1.0 µM) of 26%, a residual activity ([1]; compound 5.0 µM) of 10% and a residual activity ([2]; compound 1.0 µM) of 55%. For the same compound, the residual activity ([2]; compound 5.0 µM) was 27% and the residual activity ([2]; compound 10.0 µM) was 90%.

With NC(=O)c1ccc(-c2ccc(Oc3cncc4sc(-c5nn[nH]n5)cc34)cc2)cc1 the residual activity ([1]; compound 1.0 µM) was 82%, the residual activity ([1]; compound 10.0 µM) was 87% and the residual activity ([2]; compound 1.0 µM) was 77%. It also gave a residual activity ([2]; compound 10.0 µM) of 49%.

Compound COc1cc2ncn(-c3cc(OCc4ccccc4S(C)(=O)=O)c(C#N)s3)c2cc1OC has a residual activity ([1]; compound 1.0 µM) of 93%, a residual activity ([1]; compound 10.0 µM) of 67% and a residual activity ([2]; compound 1.0 µM) of 10%. For the same compound, the residual activity ([2]; compound 10.0 µM) was 9%.

Compound Cc1cc(SCc2sc(-c3ccc(C(F)(F)F)cc3)nc2C)ccc1OCC(=O)O has a residual activity ([2]; compound 1.0 µM) of 94% and a residual activity ([2]; compound 10.0 µM) of 91%.

O=C1Nc2nc(-c3c(O)cccc3OCC3CC3)cc(C3CCCNC3)c2CO1 (centres undefined) was tested, and the residual activity ([2]; compound 1.0 µM) was 87% and the residual activity ([2]; compound 10.0 µM) was 54%.

Work on O=C(O)c1cc(N=Nc2ccc(S(=O)(=O)Nc3ccccn3)cc2)ccc1O yielded a residual activity ([1]; compound 1.0 µM) of 116%, a residual activity ([1]; compound 10.0 µM) of 85% and a residual activity ([2]; compound 1.0 µM) of 101%.

CCc1cncnc1N1CCN(Cc2nc3cc(C(F)(F)F)ccc3[nH]2)CC1 showed a residual activity ([2]; compound 0.1 µM) of 100%, a residual activity ([2]; compound 1.0 µM) of 88% and a residual activity ([2]; compound 10.0 µM) of 46%.

For Cc1cccc(-c2nn(C(=S)Nc3ccccc3)cc2-c2ccnc3ccccc23)n1, the residual activity ([1]; compound 0.1 µM) was 107%, the residual activity ([1]; compound 1.0 µM) was 97% and the residual activity ([2]; compound 0.1 µM) was 99%. It also gave a residual activity ([2]; compound 1.0 µM) of 82%.

Compound CC(C)C[C@H](NC(=O)CNC(=O)c1cc(Cl)ccc1Cl)B1OC(=O)CC(CC(=O)O)(C(=O)O)O1 (some centres undefined) has a residual activity ([1]; compound 10.0 µM) of 102%, a residual activity ([3]; compound 10.0 µM) of 96% and a residual activity ([4]; compound 10.0 µM) of 102%. For the same compound, the residual activity ([5]; compound 10.0 µM) was 114%, the residual activity ([6]; compound 10.0 µM) was 98% and the residual activity ([7]; compound 10.0 µM) was 98%. The residual activity ([2]; compound 10.0 µM) was 82%, the residual activity ([8]; compound 10.0 µM) was 84% and the residual activity ([9]; compound 10.0 µM) was 101%.

For N#Cc1c(C2CCNCC2)cc(-c2c(O)cccc2OCC2CC2)nc1N, the residual activity ([1]; compound 1.0 µM) was 87%, the residual activity ([1]; compound 10.0 µM) was 85% and the residual activity ([2]; compound 1.0 µM) was 85%. It also gave a residual activity ([2]; compound 10.0 µM) of 50%.

c1ccc2c(-c3cnn4cc(-c5ccc(N6CCNCC6)cc5)cnc34)ccnc2c1 gave a residual activity ([1]; compound 0.1 µM) of 80%, a residual activity ([1]; compound 1.0 µM) of 79% and a residual activity ([1]; compound 10.0 µM) of 86%. The residual activity ([3]; compound 0.1 µM) was 78%, the residual activity ([3]; compound 1.0 µM) was 21% and the residual activity ([3]; compound 10.0 µM) was 5%. For the same compound, the residual activity ([4]; compound 0.1 µM) was 97%, the residual activity ([4]; compound 1.0 µM) was 98% and the residual activity ([4]; compound 10.0 µM) was 84%. For the same compound, the residual activity ([5]; compound 0.1 µM) was 99%, the residual activity ([5]; compound 1.0 µM) was 97% and the residual activity ([5]; compound 10.0 µM) was 92%. The residual activity ([6]; compound 0.1 µM) was 81%, the residual activity ([6]; compound 1.0 µM) was 44% and the residual activity ([6]; compound 10.0 µM) was 11%. The residual activity ([7]; compound 0.1 µM) was 102%, the residual activity ([7]; compound 1.0 µM) was 86% and the residual activity ([7]; compound 10.0 µM) was 30%. It also gave a residual activity ([2]; compound 0.1 µM) of 96%, a residual activity ([2]; compound 1.0 µM) of 59% and a residual activity ([2]; compound 10.0 µM) of 18%. It also gave a residual activity ([8]; compound 0.1 µM) of 86%, a residual activity ([8]; compound 1.0 µM) of 69% and a residual activity ([8]; compound 10.0 µM) of 101%. The residual activity ([9]; compound 0.1 µM) was 43%, the residual activity ([9]; compound 1.0 µM) was 6% and the residual activity ([9]; compound 10.0 µM) was 4%.

NC(=O)Nc1ccc2c(c1)/C(=C/c1cc(-c3cccnc3)c[nH]1)C(=O)N2 showed a residual activity ([2]; compound 0.1 µM) of 5%, a residual activity ([2]; compound 1.0 µM) of 6% and a residual activity ([2]; compound 10.0 µM) of 4%.

In the case of Cc1ccc2c(c1)C(=O)[C@@]1(O)CCN(c3ccccc3)C1=N2, the residual activity ([1]; compound 10.0 µM) is reported as 86%, the residual activity ([2]; compound 10.0 µM) is reported as 92% and the residual activity ([2]; compound 100.0 µM) is reported as 60%.

Work on NS(=O)(=O)OC[C@@H]1C[C@@H](n2ccc3c(N[C@H]4CCc5ccccc54)ncnc32)C[C@@H]1O yielded a residual activity ([1]; compound 1.0 µM) of 103%, a residual activity ([1]; compound 10.0 µM) of 101% and a residual activity ([2]; compound 1.0 µM) of 96%. It also gave a residual activity ([2]; compound 10.0 µM) of 99%.

For O=C(O)c1ccc(-c2c[nH]c3ncc(-c4ccccc4)cc23)cc1C1CCCC1, the residual activity ([1]; compound 0.1 µM) was 101%, the residual activity ([2]; compound 0.1 µM) was 49% and the residual activity ([2]; compound 1.0 µM) was 2%. For the same compound, the residual activity ([2]; compound 10.0 µM) was 1%.
